Data reported in patent US5395932A, “2,3-,4-,5-,6-,7-,8-,9- and/or 10-substituted dibenzoxazepine compounds, pharmaceutical compositions and methods of use” (G. D. Searle & Co., priority 1993, dated 1995).
Where a name gives a salt, the structure may show the parent alone.

Key:
[1] = Writhing Assay (PBQ-induced writhing, analgesia); type: in vivo, Charles River male albino mice; conditions: Mus musculus, po, intragastric; for responders at 30 mg/kg: 30 mg per kilogram, 25 minutes before PBQ i.p., writhes ≤ one-half median of saline control, read-out: WRITHING ASSAY, number of mice out of 9 or 10 in which test compound produced analgesia (converted)
Procedure: The phrase "ED50 dose" as used herein means that dose of a compound or drug which produced a biological effect, such as producing analgesia, in 50% of the animals to which the compound or drug was administered. The Writhing Assay is one of the most widely-used experimental procedures for measuring the analgesic activity of different narcotic and nonnarcotic analgesic agents, and involves the continuous, chemically-induced pain of visceral origin to an animal, such as a mouse or rat. [Gyires et al., Arch. int. Pharmacodyn, 267, 131-140 (1984); […] al., Fed. Proc., 15, 494 (1956); Koster et al., Fed. Proc., 18, 412 (1959); and Witken et al., J. Pharmacol. exp. Ther., 133, 400-408 (1961).] Chemicals which may be used to induce this pain include phenylbenzoquinone (PBQ) and acetic acid. As a result of the chemical irritation to the animal, a characteristic stretching and writhing of the animal (dorsiflexion of the animal's back, extension of its hindlimbs and the strong contraction of its abdominal musculature) will generally occur. […] Drugs which reduce the number of writhes of the animal appear to restore the normal nociceptive threshold of the animal. […] Charles River male albino mice, weighing 20 to 30 grams were used in this assay. Twenty-five minutes after intragastric administration to nine or ten mice of 30 mg per kilogram of body weight of a compound of the present invention ("test compound"), […] per 10 g of body weight of a 0.025% w/v solution of PBQ was injected intraperitoneally into each mouse. Ten mice which were given saline in place of a test compound of the invention were used as a control group. Five minutes later, each mouse was individually placed into a glass beaker for observation, and the number of writhes occurring during the following ten-minute period was counted. A test compound was considered to have produced analgesia in a mouse if, in accordance with the conditions set forth above, and under the test criteria employed for this assay, after the administration of 30 mg per kilogram of body weight of a compound of the present invention to the mouse, the number of writhes elicited by a mouse injected with PBQ was equal to, or less than, one-half the median number of writhes recorded for the saline-treated control group of mice that day, as described by Taber in "Predictive Value of Analgesic Assays in Mice and Rats," Advances in Biochemical Psychopharmacology, 8, 191 (1974). The results for the particular compounds of the present invention analyzed in this assay, and discussed in the examples identified below which correspond thereto, are presented in Table 1 hereinbelow as fractions under the heading "WRITHING ASSAY." The fractions indicate the number of mice out of nine or ten in which a test compound produced analgesia. The standard initial screening dose of a test compound employed in this assay was 30 milligrams per […] of body weight. If this initial screening dose of the test compound produced analgesia in seven of nine or ten mice, then the effect of additional doses of the test compound on the writhing response was evaluated, and then the ED50 dose was generally calculated. (The slopes of the dose-response curves for all test compounds analyzed were compared as described by Tallarida and Murray, Manual of Pharmacologic Calculations, Page 11 (Springer Verlag, New York, 1981)). All ED50 doses calculated are also presented below as whole numbers in Table 1, under the heading "WRITHING ASSAY."

[2] = target: T1, prostaglandin E2-induced contractions of segments of guinea pig ileum (Cavia porcellus, UniProt A0A286XHJ6); assay: Prostaglandin (PGE) Antagonism Assay (guinea pig ileum); type: cell-based, male albino guinea pigs; conditions: estimated from 3 micromolar (dose ratio ≥2) or Schild plot (dose ratio ≥5); 37° C.; read-out: PGE ANTAGONISM IN GUINEA PIG ILEUM (pA2) (converted)
T1 construct: Segments of ileum about 2 cm long were then cut and mounted in a 10-mL tissue bath; from tissue; host or cells: guinea pig ileum segments
T1 sequence (A0A286XHJ6 1-405): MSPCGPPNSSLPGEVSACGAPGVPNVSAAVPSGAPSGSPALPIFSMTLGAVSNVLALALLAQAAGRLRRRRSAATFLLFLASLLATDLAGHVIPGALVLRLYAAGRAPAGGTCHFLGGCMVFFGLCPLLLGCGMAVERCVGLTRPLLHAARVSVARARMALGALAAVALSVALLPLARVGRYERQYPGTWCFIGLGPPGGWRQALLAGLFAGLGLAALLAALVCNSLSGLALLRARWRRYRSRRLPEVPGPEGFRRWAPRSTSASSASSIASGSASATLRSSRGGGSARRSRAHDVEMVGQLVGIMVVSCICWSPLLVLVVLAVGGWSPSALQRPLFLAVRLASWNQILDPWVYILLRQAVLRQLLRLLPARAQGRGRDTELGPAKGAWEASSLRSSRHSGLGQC
Text: The phrase "EC50 concentration" as used herein means that concentration of a compound or drug which is necessary to elicit a 50% maximal biological response and, thus, which is necessary to elicit a 50% reduction in the contractions of guinea pig ileum segments in a prostaglandin antagonism assay. (b) Prostaglandin (PGE) Antagonism Assay In order to determine the effectiveness of several of the compounds of the present invention ("test compounds") as prostaglandin E2 antagonists,a prostaglandin antagonism assay was conducted, as described below, to determine the ability of these compounds to inhibit prostaglandin E2 -induced contractions of segments of guinea pig ileum. […] Male albino guinea pigs weighing 200 to 500 grams were sacrificed by cervical dislocation. The ilea were then quickly removed from the guinea pigs and placed in a modified Tyrode solution, a solution which is known to those skilled in the art, containing one-half of the usual amount of magnesium ions. Segments of ileum about 2 cm long were then cut and mounted in a 10-mL tissue bath containing the modified Tyrode solution. The solution was maintained at 37° C. and aerated with a gaseous mixture of 95% oxygen and 5% carbon dioxide. Data for a control prostaglandin E2 dose response curve plotting concentration of prostaglandin E2 versus the intensity of contractions, detected isotonically, was then obtained by experimentally adjusting the dose of the prostaglandin E2 being injected into the tissue bath, in a manner known by those of skill in the art. Solutions or suspensions containing an initial concentration (3 micromolar) of a test compound in modified Tyrode solution ("test solutions/suspensions") were then separately substituted for the control bath solution. Each test solution/suspension was then kept in constant contact with the ileum tissue, except for brief periods to drain the bath in preparation for rinsing with fresh test solution/suspension. A second prostaglandin E2 dose response curve was then generated for prostaglandin E2 in the presence of a test compound. A dose ratio of EC50 doses was then calculated from the results of each test in a manner known by those of skill in the art. A test compound was determined to be "active" if the initial concentration used yielded at least a two-fold shift (dose ratio greater than or equal to 2) in the dose response curve for prostaglandin E2. […] The compounds of the present invention which were tested in this assay, and for which results are presented in Table 1, correspond to the particular examples specified in Table 1.

Row | Kb [2] | Compound | responders at 30 mg/kg [1] | ED50 ([1]; mice, PBQ)
1 | 15.8 nM | O=C(NCCc1ccncc1)c1coc(CN2Cc3ccccc3Oc3ccc(Cl)cc32)n1 [Example 14, 2-[(8-chlorodibenz[b,f][1,4]oxazepin-10(11H)yl)methyl]-N-[2-(4-pyridinyl)ethyl]-4-oxazolecarboxamide, hydrochloride, acetate] | 60% | –
2 | 158 nM | O=C(NCc1cccs1)c1coc(CN2Cc3ccccc3Oc3ccc(Cl)cc32)n1 [Example 15, 2-[(8-chlorodibenz[b,f][1,4]oxazepin-10(11H)yl)methyl]-N-(2-thienylmethyl)-4-oxazolecarboxamide] | 70% | –
3 | 3160 nM | O=C(Nc1cncnc1)c1coc(CN2Cc3ccccc3Oc3ccc(Cl)cc32)n1 [Example 16, 2-[(8-chlorodibenz[b,f][1,4]oxazepin-10(11H)yl)methyl]-N-5-pyrimidinyl-4-oxazolecarboxamide] | – | –
4 | 398 nM | O=C(Nc1ccncc1)c1coc(CN2Cc3ccccc3Oc3ccc(Cl)cc32)n1 [Example 17, 2-[(8-chlorodibenz[b,f][1,4]oxazepin-10(11H)yl)methyl]-N-4-pyridinyl-4-oxazolecarboxamide, hydrochloride] | – | –
5 | 1580 nM | CCOC(=O)c1csc(CN2Cc3ccccc3Oc3ccc(Cl)cc32)n1 [Example 19, ethyl 2-[(8-chlorodibenz[b,f][1,4]oxazepine-10(11H)yl)methyl]-4-thiazolecarboxylate] | 10% | –
6 | 7.94 nM | O=C(O)c1csc(CN2Cc3ccccc3Oc3ccc(Cl)cc32)n1 [Example 20, 2-[(8-chlorodibenz[b,f][1,4]oxazepin-10(11H)yl)methyl]-4-thiazolecarboxylicacid, sodium salt] | 50% | –
7 | 794 nM | O=C(NCc1ccncc1)c1csc(CN2Cc3ccccc3Oc3ccc(Cl)cc32)n1 [Example 21, 2-[(8-chlorodibenzb,f][1,4]oxazepin-10(11H)yl)methyl]-N-(4-pyridinylmethyl)-4-thiazolecarboxamide, acetate, hydrochloride] | 70% | –
8 | 794 nM | Cl.O=C(NCc1ccncc1)c1csc(N2Cc3ccccc3Oc3ccc(Cl)cc32)n1 [Example 26, 2-(8-Chlorodibenz[b,f][1,4]oxazepin-10(11H)-yl)-N-(4-pyridinylmethyl)-4-thiazolecarboxamide, monohydrochloride] | – | 9.77 mg/kg
9 | 3160 nM | O=C(Nc1ccncc1)c1csc(N2Cc3ccccc3Oc3ccc(Cl)cc32)n1 [Example 28, 2-(8-Chlorodibenz[b,f][1,4]oxazepin-10(11H)-yl)-N-4-pyridinyl-4-thiazolecarboxamide, hydrochloride] | 100% | –

The next lines start with the compound.

Row | Compound | Kb [2] | responders at 30 mg/kg [1] | ED50 ([1]; mice, PBQ)
10 | CCOC(=O)c1coc(CN2Cc3ccccc3Oc3ccc(Cl)cc32)n1 [Example 7, Ethyl 2-[(8-chlorodibenz[b,f][1,4]oxazepin-10(11H)yl)methyl]-4-oxazole carboxylate] | 794 nM | 90% | –
11 | O=C(O)c1coc(CN2Cc3ccccc3Oc3ccc(Cl)cc32)n1 [Example 8A, 2-[(8-chlorodibenz[b,f][1,4]oxazepin-10(11H)yl)methyl]-4-oxazole carboxylic acid, sodium salt] | 39.8 nM | 10% | –
12 | O=C(NCCc1ccccn1)c1coc(CN2Cc3ccccc3Oc3ccc(Cl)cc32)n1 [Example 9, 2-[(8-chlorodibenz[b,f][1,4]oxazepin-10(11H)yl)methyl]-N-[2-(2-pyridinyl)ethyl]-4-oxazolecarboxamide, hydrochloride] | 200 nM | 70% | –
13 | O=C(NCc1ccccn1)c1coc(CN2Cc3ccccc3Oc3ccc(Cl)cc32)n1 [Example 10, 2-[(8-chlorodibenz[b,f][1,4]oxazepin-10(11H)yl)methyl]-N-(2-pyridinylmethyl)-4-oxazolecarboxamide, monohydrochloride] | 31.6 nM | 20% | –
14 | O=C(NCc1ccncc1)c1coc(CN2Cc3ccccc3Oc3ccc(Cl)cc32)n1 [Example 11, 2-[(8-chlorodibenz[b,f][1,4]oxazepin-10(11H)yl)methyl]-N-(4-pyridinylmethyl)-4-oxazolecarboxamide, monohydrochloride] | 25.1 nM | 90% | –
15 | O=C(OCc1ccncc1)c1coc(CN2Cc3ccccc3Oc3ccc(Cl)cc32)n1 [Example 12, 4-pyridinylmethyl 2-[(8-chlorodibenz[b,f][1,4]oxazepin-10(11H) -yl)methyl]-4-oxazole carboxylate, hydrochloride] | – | 40% | –
16 | Cc1nc(CN2Cc3ccccc3Oc3ccc(Cl)cc32)cs1 [Example 23, 8-chloro-10,11-dihydro-10-[(2-methyl-4-thiazolyl)methyl]dibenz[b,f][1,4]oxazepine hydrochloride] | – | 11.1% | –
17 | CN(C)CCNC(=O)c1csc(N2Cc3ccccc3Oc3ccc(Cl)cc32)n1 [Example 27, 2-(8-Chlorodibenz[b,f][1,4]Oxazepin-10(11H)-yl)-N-[2-(dimethylamino)ethyl]-4-thiazolecarboxamide, monohydrochloride] | – | 60% | –
18 | O=C(Nc1ccccn1)c1csc(N2Cc3ccccc3Oc3ccc(Cl)cc32)n1 [Example 30, 2-(8-Chlorodibenz[b,f][1,4]oxazepin-10(11H)-yl)-N-2-pyridinyl-4-thiazolecarboxamide, hydrochloride] | – | 40% | –
